Source: patent US8906602B2, “Methods for identifying candidate compounds for treating, reducing, or preventing pathogenic infections” (The General Hospital Corporation, priority 2004, dated 2014)

How the values were obtained:
pyocyanin production = experiment: Pyocyanin production in pqs or mvfR mutant cultures; format: cell-based, Pseudomonas aeruginosa pqs or mvfR mutants; conditions: addition to cultures of any pqs or mvfR mutants
Protocol: Whereas pqsA or pqsB inactivation abolish HAQ production, a pqsE mutant produces essentially normal HAQ levels (FIG. 12), and HAQ-related antibiotic activity (FIG. 6). […] Supporting this notion, mvfR overexpression gave excessive pyocyanin accumulation (FIG. 12). […] Such compounds would not be detected by our assay, which was aimed at extracellular compounds. Loss of these compounds might underlie the reduced pathogenicity of a pqsE mutant.
Bacteria were grown in Luria-Bertani broth or on 1.5% Bacto-agar (Difco) LB plates. Freshly plated cells served as inoculum. For pyocyanin production, bacteria were grown in King's A broth (King et al., J. Lab. Clin. Med. 44, 301, 1954) and the pyocyanin quantified as OD520 after supernatant extraction (Essar et al., J. Bacteriol. 172, 884-900, 1990). Tetracycline (75 mg/L), carbenicillin (300 mg/L), kanamycin (200 mg/L), and gentamicin (100 mg/L) were included as required.

phzABC-lacZ reporter = phzABC-lacZ reporter activity after exogenous HHQ, wild-type PA14 cells; format: cell-based, Pseudomonas aeruginosa PA14; conditions: wild-type PA14, 10 mg/L HHQ added to culture medium
Excerpt: To determine whether HHQ is itself involved in signal gene regulation, independently from PQS activity, or whether it functions solely as a PQS precursor, we asked whether exogenous HHQ can stimulate the activity of a phzABC-lacZ reporter carried by wild-type PA14 cells, and by lasR^− mutant cells.
P. aeruginosa strains include: wild type PA14 (Rahme et al., Science 268, 1899-1902, 1995); an mvfR mutant (Cao et al., Proc. Natl. Acad. Sci. USA 98, 14613 -8, 2001); 8C12, a TnphoA-insertion mutant of pqsB (Mahajan-Miklos et al., Cell 96, 47-56, 1999); and a lasR::Gm mutant, which was generated by allelic exchange using pSB219.9A as described (Beatson et al., J Bacteriol 184, 3598-604, 2002). A pqsE deletion mutant was generated via pEX18Ap allelic replacement, using sucrose selection, resulting in a 570 bp non-polar deletion covering 65% of the sequence (Hoang et al., Gene 212, 77-86, 1998). The pqsA (U479) TnphoA mutant was obtained from the PA14 Transposon Insertion Mutant Database. For complementation analysis, mvfR was cloned into pDN18 (Nunn et al., J. Bacteriol. 172, 1990). […] Specific β-galactosidase activity was determined as reported (Miller, Cold Spring Harbor Laboratory, Cold Spring Harbor, N.Y., pp. 352-355 1972). […]

pqsA-lacZ reporter = pqsA-lacZ reporter induction in pqsA mutant cultures; format: cell-based, Pseudomonas aeruginosa pqsA mutant; conditions: pqsA mutant background, compounds added at onset of culture at 10 mg/L
Excerpt: Activity is reported as Miller units (MU), corrected for the OD of the cultures at 600 nm.
P. aeruginosa strains include: wild type PA14 (Rahme et al., Science 268, 1899-1902, 1995); an mvfR mutant (Cao et al., Proc. Natl. Acad. Sci. USA 98, 14613 -8, 2001); 8C12, a TnphoA-insertion mutant of pqsB (Mahajan-Miklos et al., Cell 96, 47-56, 1999); and a lasR::Gm mutant, which was generated by allelic exchange using pSB219.9A as described (Beatson et al., J Bacteriol 184, 3598-604, 2002). A pqsE deletion mutant was generated via pEX18Ap allelic replacement, using sucrose selection, resulting in a 570 bp non-polar deletion covering 65% of the sequence (Hoang et al., Gene 212, 77-86, 1998). The pqsA (U479) TnphoA mutant was obtained from the PA14 Transposon Insertion Mutant Database. For complementation analysis, mvfR was cloned into pDN18 (Nunn et al., J. Bacteriol. 172, 1990). The reporter fusions phzABC-lacZ and hcnA′-lacZ have been described (Whiteley et al., J. Bacteriol. 182, 4356-60, 2000; Pessi et al., J. Bacteriol. 182, 6940-9, 2000). Plasmids were transformed into PA14 by electroporation (Smith et al., Nuc. Acid. Res. 17, 10509, 1989). Specific β-galactosidase activity was determined as reported (Miller, Cold Spring Harbor Laboratory, Cold Spring Harbor, N.Y., pp. 352-355 1972).

[1] = Pesci et al. 1999; cited from earlier work
[2] = test system: Na^+-translocating NADH-quinone oxidoreductases; conditions: Häse et al. 2001; cited from earlier work
cytochrome = conditions: Lightbown et al. 1956; cited from earlier work
Bacillus subtilis = experiment: Antimicrobial activity assay on well-plates (growth inhibition zones); format: cell-based; conditions: well-plate, 60 μl of 25% methanol solution of test extract or pure HAQ, overnight 37° C.; FIG. 10
Excerpt: Bacillus subtilis growth on well plates was scored for inhibition by culture extracts of PA14 and the mvfR, pqsA, and pqsE mutant strains (left plate), and by purified PQS, HHQ and HQNO, versus PA14 extract (right plate).
Fluorescent pseudomonads, and perhaps just P. aeruginosa, are the only microorganisms identified to produce HAQs (Budzikiewicz, FEMS Microbiol. Rev. 104, 209-228, 1993; Lépine et al., Biochim. Biophys. Acta 1622, 36-40, 2003). Although their biological functions are unknown, many HAQs were initially isolated as antibiotics (Hays et al., J. Biol. Chem. 159, 725-750, 1945; Wells, J. Biol. Chem. 196, 331-340, 1952). We assayed the antimicrobial activity of total organic extracts from PA14 and mvfR, pqsA, and pqsE mutant strains, and purified PQS, HHQ and HQNO, against the Gram-positive species Staphylococcus aureus and Bacillus subtilis. […] Thus, MvfR regulates the production of antibiotics that can function in niche competition against other bacteria. Because the pqsE mutant and PA14 produce roughly the same levels of antimicrobial activity, these antibiotic compounds are probably HAQs, instead of other non-polar compounds whose synthesis is under PQS control.
HAQ antimicrobial activity was evaluated on well-plates. […] Plates were incubated overnight at 37° C. and scored for growth inhibition zones around the test wells.

SMILES: CCCCCCCc1cc(O)c2ccccc2n1 [HHQ, 4-hydroxy-2-heptylquinoline]
- induction of pyocyanin production (pyocyanin production): failed to induce pyocyanin production
- β-galactosidase activity of phzABC-lacZ reporter (phzABC-lacZ reporter): induces significant and consistent levels of β-galactosidase activity

SMILES: Nc1ccccc1C(=O)O [AA, anthranilic acid]
- pqsA-lacZ induction (LacZ activity) (pqsA-lacZ reporter): does not

SMILES: CCCCCCCc1nc2ccccc2c(O)c1O [PQS, 3,4-dihydroxy-2-heptylquinoline]
- pqsA-lacZ induction (LacZ activity) (pqsA-lacZ reporter): activates pqsA transcription
- induction of pyocyanin production (pyocyanin production): failed to induce pyocyanin production
- antibiotic activity [1]: no antibiotic activity

SMILES: CCCCCCCc1cc(O)c2ccccc2[n+]1[O-] [HQNO, 4-hydroxy-2-heptylquinoline N-oxide]
- inhibition of Na^+-translocating NADH-quinone oxidoreductases [2]: inhibits
- cytochrome inhibition (cytochrome): widely used cytochrome inhibitor
- antimicrobial activity (growth inhibition) (Bacillus subtilis): specific antibacterial activity
